Broadly, the EC50 is the midpoint of the concentration-response curve. As usually defined, the IC50 is the concentration needed to halve the response being measured.

The values that follow come from patent US10947263B2, “Cyclic dinucleotides as anticancer agents” (BRISTOL-MYERS SQUIBB COMPANY, priority 2017, dated 2021).

SMILES strings stand for the structures.

The subject of assay [1] is STING / IRF pathway in THP1-Dual cells. Nature of the assay: STING THP1 Reporter Assay, IRF pathway (secreted Lucia luciferase, QUANTI-Luc). Format: cell-based. The conditions noted are these: Homo sapiens, THP1-Dual, 20 h, 10% human plasma, 100% activation = 100 μM cGAMP, luciferase readout, read-out: THP1 Reporter Assays EC50 IRF3. An outline of the steps: (§1)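 THP1-Dual cells (15,000/well) in RPMI with 10% human plasma were exposed to serially diluted compound (top concentration 100 μM) for 20 h at 37 °C. For IRF, Lucia luciferase was read with QUANTI-Luc (luminescence at 5 min); for NF-κB, SEAP was read with 2× QUANTI-Blue after 2 h at 37 °C (OD620). 100 μM cGAMP set 100% activation, and DMSO set baseline.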
(In general: In a reporter assay the amount or activity of a reporter protein is the signal.)

Assay [2] has as its system STING / NF-κB pathway in THP1-Dual cells. Nature of the assay: STING THP1 Reporter Assay, NF-κB pathway (SEAP, QUANTI-Blue). The assay is classed as cell-based. Particulars: Homo sapiens, THP1-Dual, 20 h, 10% human plasma, 100% activation = 100 μM cGAMP, SEAP readout, read-out: THP1 Reporter Assays EC50 NFkB. An outline of the steps:
as §1

In assay [3] the target is T1, STING WT (His-TVMV-S-hSTING(155-341)-H232R) (Homo sapiens, UniProt Q86WV6, H232R).
T1 construct: STING WT: His-TVMV-S-hSTING(155-341)-H232R
T1 sequence (Q86WV6 with tags, fused parts or gaps H232R): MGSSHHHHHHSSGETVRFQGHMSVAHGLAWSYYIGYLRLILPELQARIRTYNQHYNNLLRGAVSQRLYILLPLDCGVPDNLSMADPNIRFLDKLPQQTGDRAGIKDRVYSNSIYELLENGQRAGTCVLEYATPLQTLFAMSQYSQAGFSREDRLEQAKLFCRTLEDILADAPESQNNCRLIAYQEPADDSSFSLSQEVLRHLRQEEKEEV
Kind of assay: STING HTRF binding assay (time resolved FRET competition), STING WT. The conditions noted are these: 20 nM His-tagged STING WT cytoplasmic domain, 200 nM fluorescein-labeled cGAMP analog probe, one hour; read-out: HTRF Binding Assays IC50 WT.

Assay [4] addresses T2, STING AQ (His-TVMV-S-hSTING(155-341)-G230A-R293Q) (Homo sapiens, UniProt Q86WV6, G230A/H232R/R293Q).
T2 construct: STING AQ: His-TVMV-S-hSTING(155-341)-G230A-R293Q
Nature of the assay: STING HTRF binding assay (time resolved FRET competition), STING AQ. The conditions noted are these: 20 nM His-tagged STING AQ cytoplasmic domain, 40 nM fluorescein-labeled cGAMP analog probe, one hour; read-out: HTRF Binding Assays IC50 AQ.

T2 sequence (Q86WV6 with tags, fused parts or gaps G230A/H232R/R293Q): as the sequence (Q86WV6 with tags, fused parts or gaps H232R) above, with G99A, R162Q counted along it

In the case of `Nc1ncnc2c1ncn2[C@@H]1O[C@@H]2COP(=O)(O)O[C@@H]3[C@H](O)[C@@H](COP(=O)(O)O[C@H]2[C@H]1O)O[C@H]3n1nnc2c([N+](=O)[O-])cccc21` [Example 2, (1R,6R,8R,9R,10S,15R,17R, 18R)-8-(6-amino-9H-purin-9-yl)-3,9,12,18-tetrahydroxy-17-(4-nitro-1H-1,2,3-benzo-triazol-1-yl)-2,4,7,11,13,16-hexaoxa-3λ^5,12λ^5-diphospha-tricyclo[13.2.1.0^6,^10]octa-decane-3,12-dione], the EC50 in assay [1] amounted to 53 µM; in assay [2], 80 µM. Moreover, the results for the IC50 in assay [3] and in assay [4] were 0.16 µM and 0.005 µM, respectively.

As for `NC(=O)c1cccc2c1nnn2[C@@H]1O[C@@H]2COP(=O)(O)O[C@H]3[C@@H](F)[C@H](n4cnc5c(N)ncnc54)O[C@@H]3COP(=O)(O)O[C@@H]1[C@@H]2F` [Example 3, 1-[(1S,6R,8R,9R,10R,15R, 17R,18R)-8-(6-amino-9H-purin-9-yl)-9,18-difluoro-3,12-dihydroxy-3,12-dioxo-2,4,7,11,13,16-hexaoxa-3λ^5,12λ^5-diphosphatricyclo [13.2.1.0^6,^10]octadecan-17-yl]-1H-1,2,3-benzotriazole-4-carboxamide], the results for the EC50 in assay [1] and in assay [2] were 3.5 µM and 6.7 µM, respectively. For the same molecule, the IC50 in assay [3] was determined as 0.03 µM; in assay [4] it was 0.01 µM.

As to `O=[N+]([O-])c1cccc2c1nnn2[C@@H]1O[C@@H]2COP(=O)(S)O[C@H]3[C@@H](F)[C@H](n4cnc5c4ncn4ccnc54)O[C@@H]3COP(=O)(S)O[C@@H]1[C@@H]2F` (stereo partly drawn) [Example 14-1, (1S,6R,8R,9R,10R,15R,17R,18R)-9,18-difluoro-8-{3H-imidazo[2,1-f]purin-3-yl}-17-(4-nitro-1H-1,2,3-benzotriazol-1-yl)-3,12-disulfanyl-2,4,7,11,13,16-hexaoxa-3λ^5,12λ^5-diphosphatricyclo[13.2.1.0^6,10]octadecane-3,12-dione], the EC50 is 3.3 µM in assay [1] and 11.7 µM in assay [2]. The IC50 in assay [3] is 0.05 µM; in assay [4], 0.01 µM.

As for `Nc1ncnc2c1ncn2[C@@H]1O[C@@H]2COP(=O)(O)O[C@@H]3[C@H](O)[C@@H](COP(=O)(S)O[C@H]2[C@H]1O)O[C@H]3n1nnc2c([N+](=O)[O-])cccc21` (stereo partly drawn) [Example 18-1, (1R,6R,8R,9R,10S,15R,17R,18R)-8-(6-amino-9H-purin-9-yl)-3,9,18-trihydroxy-17-(4-nitro-1H-1,2,3-benzotriazol-1-yl)-12-sulfanyl-2,4,7,11,13,16-hexaoxa-3λ^5,12λ^5-diphosphatricyclo[13.2.1.0^6,10]octadecane-3,12-dione], the EC50 in assay [1] and in assay [2] was greater than 100 µM each time. The IC50 in assay [3] is greater than 100 µM; in assay [4] it was 66.9 µM.

`Nc1ncnc2c1ncn2[C@@H]1O[C@@H]2COP(=O)(O)O[C@@H]3[C@H](O)[C@@H](COP(=O)(S)O[C@H]2[C@H]1F)O[C@H]3n1nnc2c([N+](=O)[O-])cccc21` (stereo partly drawn) [Example 19-1, (1R,6R,8R,9R,10R,15R,17R, 18R)-8-(6-amino-9H-purin-9-yl)-9-fluoro-3,12,18-trihydroxy-17-(4-nitro-1H-1,2,3-benzotriazol-1-yl)-12-sulfanylidene-2,4,7,11,13, 16-hexaoxa-3λ^5,12λ^5-diphos-phatricyclo[13.2.1.0^6,10]octa-decan-3-one]: the EC50 in assay [1] and in assay [2] was greater than 100 µM each time. For the same molecule, the concentration for half-maximal inhibition (IC50) in assay [3] was found to be 4.66 µM; in assay [4] it was 0.65 µM.
